Measured values from patent publication US9550775B2, “Substituted triazolopyridines and methods of use thereof” (GENENTECH, INC., priority 2013, dated 2017).

These molecules were tested against human NaV1.7 (with β1 subunit) stably expressed in HEK-293 cells (Homo sapiens (Human), UniProt Q15858) (assay: Patch voltage clamp electrophysiology assay (EP), inactivated-state block). Settings: membrane potential held at -60 mV; read-out: affinity for the inactivated state of NaV1.7.
Format: cell-based
Experimental: Patch voltage clamp electrophysiology allows for the direct measurement and quantification of block of voltage-gated sodium channels (NaV's), and allows the determination of the time- and voltage-dependence of block which has been interpreted as differential binding to the resting, open, and inactivated states of the sodium channel (Hille, B., Journal of General Physiology (1977), 69: 497-515).
Currents were recorded at 40 kHz sampling frequency, filtered at […], and stored using a Digidata-1322A analogue/digital interface with the pClamp software (Axon Instruments). Series resistance compensation was applied (60-80%). […] All statistics in this study are given as mean±SD.
The membrane potential was maintained at a voltage where inactivation of the channel is complete (which was −60 mV for both NaV1.7 and NaV1.5). The voltage is then stepped back to a very negative (Vhold=[…]) voltage for 20 ms and then a test pulse is applied to quantify the compound block. The 20 ms brief repolarization was long enough for compound-free channels to completely recover from fast inactivation, but the compound-bound channels recovered more slowly such that negligible recovery could occur during this interval. The percent decrease in sodium current following wash-on of compound was taken as the percent block of sodium channels.
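For NaV1.7 Ligand Binding Assay (IC50) in this document: displacement of the tritiated ligand from recombinant cell membranes, read by liquid scintillation counting of filter-bound radioactivity, nonspecific binding defined with 1 µM unlabelled compound.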

Chain of human NaV1.7 (with β1 subunit) stably expressed in HEK-293 cells (Q15858 other isoform, or with tags, fused parts or gaps): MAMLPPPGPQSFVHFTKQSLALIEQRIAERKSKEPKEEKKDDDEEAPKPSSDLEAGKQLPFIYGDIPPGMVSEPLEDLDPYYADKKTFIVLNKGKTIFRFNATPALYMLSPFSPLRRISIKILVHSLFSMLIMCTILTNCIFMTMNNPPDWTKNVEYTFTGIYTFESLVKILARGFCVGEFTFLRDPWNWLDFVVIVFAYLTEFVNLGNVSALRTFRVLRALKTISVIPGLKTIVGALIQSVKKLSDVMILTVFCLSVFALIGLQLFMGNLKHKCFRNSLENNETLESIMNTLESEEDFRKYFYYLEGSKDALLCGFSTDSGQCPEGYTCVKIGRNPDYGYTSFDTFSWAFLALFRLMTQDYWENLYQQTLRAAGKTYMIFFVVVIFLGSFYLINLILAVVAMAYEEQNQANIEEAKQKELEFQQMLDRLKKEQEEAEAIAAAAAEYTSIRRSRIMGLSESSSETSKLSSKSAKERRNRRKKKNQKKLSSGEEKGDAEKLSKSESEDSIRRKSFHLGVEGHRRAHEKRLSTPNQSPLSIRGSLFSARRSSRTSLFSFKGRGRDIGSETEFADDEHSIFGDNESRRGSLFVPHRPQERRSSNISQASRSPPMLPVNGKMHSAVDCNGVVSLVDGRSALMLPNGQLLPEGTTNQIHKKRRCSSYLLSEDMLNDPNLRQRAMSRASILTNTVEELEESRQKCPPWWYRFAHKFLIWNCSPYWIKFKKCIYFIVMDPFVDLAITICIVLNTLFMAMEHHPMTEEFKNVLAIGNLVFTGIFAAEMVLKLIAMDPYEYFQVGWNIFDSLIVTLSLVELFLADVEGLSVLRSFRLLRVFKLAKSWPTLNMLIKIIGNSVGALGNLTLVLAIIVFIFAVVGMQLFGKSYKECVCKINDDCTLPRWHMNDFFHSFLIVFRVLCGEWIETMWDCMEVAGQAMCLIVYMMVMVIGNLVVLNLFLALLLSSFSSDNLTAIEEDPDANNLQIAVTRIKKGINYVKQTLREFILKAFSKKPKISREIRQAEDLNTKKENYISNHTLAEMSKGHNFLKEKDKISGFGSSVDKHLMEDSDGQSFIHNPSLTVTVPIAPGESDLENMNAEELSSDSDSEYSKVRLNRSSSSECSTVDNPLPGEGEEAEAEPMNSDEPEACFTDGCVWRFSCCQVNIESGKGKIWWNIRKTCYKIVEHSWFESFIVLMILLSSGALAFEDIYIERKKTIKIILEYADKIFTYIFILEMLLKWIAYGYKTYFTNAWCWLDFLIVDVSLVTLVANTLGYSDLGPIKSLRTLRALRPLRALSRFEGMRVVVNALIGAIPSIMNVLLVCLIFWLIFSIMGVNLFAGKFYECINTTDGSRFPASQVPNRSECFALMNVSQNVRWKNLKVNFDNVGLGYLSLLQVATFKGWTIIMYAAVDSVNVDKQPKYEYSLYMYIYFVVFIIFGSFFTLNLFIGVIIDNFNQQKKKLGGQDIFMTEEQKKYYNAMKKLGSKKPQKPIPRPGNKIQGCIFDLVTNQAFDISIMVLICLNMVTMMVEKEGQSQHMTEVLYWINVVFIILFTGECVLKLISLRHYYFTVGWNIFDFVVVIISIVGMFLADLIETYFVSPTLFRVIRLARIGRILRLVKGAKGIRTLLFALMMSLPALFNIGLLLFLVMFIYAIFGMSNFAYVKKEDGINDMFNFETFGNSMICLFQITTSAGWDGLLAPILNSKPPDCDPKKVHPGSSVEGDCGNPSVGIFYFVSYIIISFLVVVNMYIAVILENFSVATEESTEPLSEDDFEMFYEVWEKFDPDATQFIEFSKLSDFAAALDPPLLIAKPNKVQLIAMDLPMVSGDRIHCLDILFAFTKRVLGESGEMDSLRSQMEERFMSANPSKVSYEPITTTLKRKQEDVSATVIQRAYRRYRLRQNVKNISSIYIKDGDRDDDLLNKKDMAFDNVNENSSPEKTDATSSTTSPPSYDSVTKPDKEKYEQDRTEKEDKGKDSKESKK
Chain of human NaV1.7 (with β1 subunit) stably expressed in HEK-293 cells (Q07699 19-218 partner): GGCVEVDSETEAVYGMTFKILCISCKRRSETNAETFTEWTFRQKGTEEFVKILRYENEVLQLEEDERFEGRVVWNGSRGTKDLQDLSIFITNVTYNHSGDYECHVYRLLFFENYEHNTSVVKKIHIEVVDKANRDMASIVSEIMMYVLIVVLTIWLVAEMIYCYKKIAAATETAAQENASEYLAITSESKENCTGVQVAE

Row | SMILES | IC50 [nM]
1 | CS(=O)(=O)Nc1nnc2cc(COc3ccc(Cl)c(Cl)c3)c(Br)cn12 [Example 55, N-(6-bromo-7-((3,4-dichlorophenoxy)methyl)-[1,2,4]-triazolo[4,3-a]pyridin-3-yl)-methanesulfonamide] | 2.6

The molecules below were run against hNav1.7 (Homo sapiens (Human), UniProt Q15858) (assay: Tritiated sulfonamide competitive binding to membranes from cells expressing hNav1.7 and the β1 subunit). Settings: 100 pM [3H]compound, 18 h, room temperature; inactivated state of NaV1.7 membrane binding; read-out: NaV1.7 Ligand Binding Assay (IC50).
Chain of hNav1.7 (Q15858 other isoform, or with tags, fused parts or gaps): as the sequence (Q15858 other isoform, or with tags, fused parts or gaps) above
Chain of hNav1.7 (Q07699 19-218 partner): as the sequence (Q07699 19-218 partner) above

Row | SMILES | IC50 [nM]
2 | CS(=O)(=O)Nc1nnc2cc(COc3ccc(Cl)c(Cl)c3)c(Br)cn12 [Example 55, N-(6-bromo-7-((3,4-dichlorophenoxy)methyl)-[1,2,4]-triazolo[4,3-a]pyridin-3-yl)-methanesulfonamide] | 2.6
3 | CC1(S(=O)(=O)Nc2nnc3cc(COc4cc(Cl)cc(OC(F)(F)F)c4)c(C4CC4)cn23)CC1 [Example 104, N-(7-((3-chloro-5-(trifluoromethoxy)phenoxy)methyl)-6-cyclopropyl-[1,2,4]triazolo[4,3-a]pyridin-3-yl)-1-methylcyclopropane-1-sulfonamide] | 4
4 | O=S(=O)(Nc1nnc2cc(OCC3CCC4(CC3)CC4)c(C3CC3)cn12)C1CC1 [Example 16, N-(6-cyclopropyl-7-(spiro[2.5]octan-6-ylmethoxy)-[1,2,4]triazolo[4,3-a]pyridin-3-yl)cyclopropanesulfonamide] | 21.7
5 | O=S(=O)(Nc1nnc2cc(COc3cc(Cl)cc(OC(F)(F)F)c3)c(C3CC3)cn12)C1CC1 [Example 97, N-(7-((3-chloro-5-(trifluoromethoxy)phenoxy)methyl)-6-cyclopropyl-[1,2,4]triazolo[4,3-a]pyridin-3-yl)cyclopropanesulfonamide] | 3
6 | CC1(COc2cc3nnc(NS(=O)(=O)C4CC4)n3cc2C2CC2)CCC(F)(F)CC1 [Example 108, N-(6-cyclopropyl-7-((4,4-difluoro-1-methylcyclohexyl)methoxy)-[1,2,4]triazolo[4,3-a]pyridin-3-yl)cyclopropanesulfonamide] | 67
7 | O=S(=O)(Nc1nnc2cc(OC3C4CC5CC(C4)CC3C5)c(C3CC3)cn12)C1CC1 (centres unmarked) [Example 79, N-(7-(adamantan-2-yloxy)-6-cyclopropyl-[1,2,4]triazolo-[4,3-a]pyridin-3-yl)cyclopropanesulfonamide] | 66
8 | CC1(COc2cc3nnc(NS(C)(=O)=O)n3cc2C2CC2)CCN(Cc2cc(Cl)cc(Cl)c2)CC1 [Example 110, N-(6-cyclopropyl-7-((1-(3,5-dichlorobenzyl)-4-methylpiperidin-4-yl)methoxy)-[1,2,4]triazolopyridin-3-yl)methanesulfonamide] | 12
9 | Cc1cc(Cl)cc(OCc2cc3nnc(NS(=O)(=O)C4CC4)n3cc2C2CC2)c1 [Example 48, N-(7-((3-chloro-5-methylphenoxy)methyl)-6-cyclopropyl-[1,2,4]triazolo[4,3-a]pyridin-3-yl)cyclopropanesulfonamide] | 6.33
10 | CS(=O)(=O)Nc1nnc2cc(OCC3CC4C5CCC(C5)C4C3)c(C3CC3)cn12 (centres unmarked) [Example 25] | 5.24
11 | CC1(C)[C@H]2CC[C@H](COc3cc4nnc(NS(=O)(=O)N5CCC5)n4cc3C3CC3)[C@@H]1C2 [Example 85, N-(6-cyclopropyl-7-(((1S,2S,5S)-6,6dimethylbicyclo [3.1.1]heptan-2-yl)methoxy)-[1,2,4]triazolopyridin-3-yl)azetidine-1-sulfonamide] | 7
12 | CS(=O)(=O)Nc1nnc2cc(OCC3(C(F)(F)F)CCCC3)c(C3CC3)cn12 [Example 37] | 45.2
13 | O=S(=O)(Nc1nnc2cc(COc3ccc(Cl)c(Cl)c3)c(C3CC3)cn12)C1CC1 [Example 94, N-(6-cyclopropyl-7-((3,4-dichlorophenoxy)methyl)-[1,2,4]-triazolo[4,3-a]pyridin-3-yl)cyclopropanesulfonamide] | 7
14 | CS(=O)(=O)Nc1nnc2cc(O[C@@H]3CCCN(Cc4ccc(F)cc4Cl)C3)c(C3CC3)cn12 [Example 112, (R)—N-(7-((1-(2-chloro-4-fluorobenzyl)piperidin-3-yl)oxy)-6-cyclopropyl-[1,2,4]triazolo[4,3-a]pyridin-3-yl)methanesulfonamide] | 130
15 | O=S(=O)(Nc1nnc2cc(OC3CCC4(CCCCC4)CC3)c(C3CC3)cn12)C1CC1 [Example 35, N-(6-cyclopropyl-7-(spiro[5.5]undecan-3-yloxy)-[1,2,4]triazolo-[4,3-a]pyridin-3-yl)cyclopropanesulfonamide] | 51.3
16 | C[C@H](c1cc(Cl)cc(Cl)c1)N1CCC(C)(COc2cc3nnc(NS(C)(=O)=O)n3cc2C2CC2)CC1 [Example 118, (R)—N-(6-cyclopropyl-7-((1-(1-(3,5-dichlorophenyl)ethyl)-4-methylpiperidin-4-yl)methoxy)-[1,2,4]triazolo[4,3-a]pyridin-3-yl)methanesulfonamide] | 14
17 | CS(=O)(=O)Nc1nnc2cc(OC[C@H]3CC[C@H](C)CC3)c(Br)cn12 [Example 87] | 87
18 | O=S(=O)(Nc1nnc2cc(COc3ccc(Cl)c(Cl)c3)c(C3CC3)cn12)N1CCC1 [Example 41, N-(6-cyclopropyl-7-((3,4-dichlorophenoxy)methyl)-[1,2,4]triazolo[4,3-a]pyridin-3-yl)azetidine-1-sulfonamide] | 18.9
19 | CCS(=O)(=O)Nc1nnc2cc(OCC34CC5CC(CC(C5)C3)C4)c(C3CC3)cn12 [Example 17, N-(7-((3r,5r,7r)-adamantan-1-ylmethoxy)-6-cyclopropyl-[1,2,4]triazolo[4,3-a]pyridin-3-yl)ethanesulfonamide] | 4.26
20 | CC1(S(=O)(=O)Nc2nnc3cc(COc4cc(Cl)cc(Cl)c4)c(C4CC4)cn23)CC1 [Example 105, N-(6-cyclopropyl-7-((3,5-dichlorophenoxy)methyl)-[1,2,4]-triazolo[4,3-a]pyridin-3-yl)-1-methylcyclopropane-1-sulfonamide] | 5
21 | CC1(COc2cc3nnc(NS(=O)(=O)C4CC4)n3cc2C2CC2)CCC(F)(F)CC1 [Example 53, N-(6-cyclopropyl-7-((4,4-difluoro-1-methylcyclohexyl)methoxy)-[1,2,4]triazolo[4,3-a]pyridin-3-yl)cyclopropanesulfonamide] | 67.4
22 | CC1(COc2cc3nnc(NS(C)(=O)=O)n3cc2C2CC2)CCCCC1 [Example 14, N-(6-cyclopropyl-7-((1-methylcyclohexyl)methoxy)-[1,2,4]-triazolo[4,3-a]pyridin-3-yl)methanesulfonamide] | 14
23 | CC1(S(=O)(=O)Nc2nnc3cc(COc4cc(Cl)cc(Cl)c4)c(C4CC4)cn23)CC1 [Example 50, N-(6-cyclopropyl-7-((3,5-dichlorophenoxy)methyl)-[1,2,4]-triazolo[4,3-a]pyridin-3-yl)-1-methylcyclopropane-1-sulfonamide] | 4.87
